Laboratory results as given in patent publication US9949369B2, “Cyanate ester compound, curable resin composition containing the same, and hardened product thereof” (MITSUBISHI GAS CHEMICAL COMPANY, INC., priority 2013, dated 2018).

Test: Solubility of the cyanate ester monomer in methyl ethyl ketone (MEK)
Type: physicochemical
Conditions: 25° C.

| amount that could be dissolved in methyl ethyl ketone (MEK) [% by mass] | Compound |
| --- | --- |
| ≥ 50 | CC12CC3(C)CC(c4ccc(OC#N)cc4)(C1)CC(c1ccc(OC#N)cc1)(C2)C3 [AMTCN, 1,3-Bis(4-Cyanatophenyl)-5,7-Dimethyladamantane] |
| ≥ 50 | Cc1cc(C23CC4(C)CC(C)(C2)CC(c2ccc(OC#N)c(C)c2)(C4)C3)ccc1OC#N [AMTcCN, 1,3-Bis(3-Methyl-4-Cyanatophenyl)-5,7-Dimethyladamantane] |
